These results are taken from US20150057246A1, “SILYL-CONTAINING HETEROCYCLIC COMPOUNDS AND METHODS OF USE THEREOF FOR THE TREATMENT OF VIRAL DISEASES” (priority 2012, published 2015).

The subject of one assay is HCV 1a replicon. Description: Cell-based HCV replicon assay (TaqMan), genotype 1a replicon. As to conditions: HCV genotype 1a replicon cells, replicon RNA by real time PCR, day 3, EC90 = concentration for ΔCT=3.2 over baseline. As to the method:
(§1) Measurement of inhibition by compounds of the present invention was performed using the HCV replicon system. Several different replicons encoding different HCV genotypes or mutations were used. In addition, potency measurements were made using different formats of the replicon assay, including different ways of measurements and different plating formats. See Jan M. Vrolijk et al., A replicons-based bioassay for the measurement of interferons in patients with chronic hepatitis C, 110 J. VIROLOGICAL METHODS 201 (2003); Steven S. Carroll et al., Inhibition of Hepatitis C Virus RNA Replication by 2′-Modified Nucleoside Analogs, 278(14) J. BIOLOGICAL CHEMISTRY 11979 (2003). However, the underlying principles are common to all of these determinations, and are outlined below.
(§2) TaqMan®-Based Assay Protocol:
(§3) Compounds of the present invention were assayed for cell-based anti-HCV activity using the following protocol. Replicon cells were seeded at 5000 cells/well in 96-well collagen I-coated Nunc plates in the presence of the test compound. Various concentrations of test compound, typically in 10 serial 2-fold dilutions, were added to the assay mixture, with the starting concentration ranging from 250 μM to 1 μM. The final concentration of DMSO was 0.5%, fetal bovine serum was 5%, in the assay media. Cells were harvested on day 3 by the addition of 1× cell lysis buffer (Ambion cat #8721). The replicon RNA level was measured using real time PCR (TaqMan® assay). The amplicon was located in 5B. The PCR primers were: 5B.2F, ATGGACAGGCGCCCTGA (SEQ. ID NO. 1); 5B.2R, […] (SEQ. ID NO. 2); the probe sequence was FAM-labeled CACGCCATGCGCTGCGG (SEQ. ID NO. 3). GAPDH RNA was used as endogenous control and was amplified in the same reaction as NS5B (multiplex PCR) using primers and VIC-labeled probe recommended by the manufacturer (PE Applied Biosystem). The real-time […] reactions were run on ABI PRISM 7900HT Sequence Detection System using the following program: 48° C. for 30 minutes, 95° C. for 10 minutes, 40 cycles of 95° C. for 15 sec, 60° C. for 1 minute. The ΔCT values (CT5B-CTGAPDH) were plotted against the concentration of test compound and fitted to the sigmoid dose-response model using XLfit4 (MDL). EC50 was defined as the concentration of inhibitor necessary to achieve ΔCT=1 over the projected baseline; EC90 the concentration necessary to achieve ΔCT=3.2 over the baseline. Alternatively, to quantitate the absolute amount of replicon RNA, a standard curve was established by including serially diluted T7 transcripts of replicon RNA in the Taqman assay. All TaqMan® reagents were from PE Applied Biosystems. Such an assay procedure was described in detail in e.g. Malcolm et al., Antimicrobial Agents and Chemotherapy 50: 1013-1020 (2006).
(§4) HCV replicon EC50 assay data for various replicons and mutants was calculated for selected compounds of the present invention using this method and is provided in the tables above herein.
Background: Replicon systems follow genome replication, usually without infectious particles.

The subject of the next assay is HCV 1a Y93H replicon. Description: Cell-based HCV replicon assay (TaqMan), 1a Y93H mutant replicon. As to conditions: Hepatitis C virus, 72 h, read-out: 1a Y93H EC90, HCV 1a Y93H mutant replicon cells, replicon RNA by real time PCR, day 3; EC90 = concentration for ΔCT=3.2 over baseline. As to the method: as §1, §2, §3, §4
Another assay relates to HCV 2b replicon. The assay can be described thus: Cell-based HCV replicon assay (TaqMan), genotype 2b replicon. As to conditions: Hepatitis C virus, 72 h, read-out: 2b EC90, HCV genotype 2b replicon cells, replicon RNA by real time PCR, day 3; EC90 = concentration for ΔCT=3.2 over baseline. As to the method: as §1, §2, §3, §4

Each structure is given as a SMILES string.

By EC90 is commonly meant the concentration at which the effect reaches the 90% level. For `COC(=O)N[C@@H](CO)C(=O)N1CCC[C@H]1c1ncc(-c2ccc(-c3ccc4c(ccc5nc([C@@H]6C[Si](C)(C)CN6C(=O)[C@@H](NC(=O)OC)C(C)C)[nH]c54)c3)cc2)[nH]1` [Compound 90], the EC90 with HCV 1a replicon (Hepatitis C virus, 72 h) was 0.56 nM; in the assay with HCV 1a Y93H replicon it was over 1000 nM; in the assay with HCV 2b replicon it was over 1000 nM.
As for `COC(=O)N[C@H](C(=O)N1C[Si](C)(C)C[C@H]1c1nc2ccc3cc(-c4ccc(-c5cnc([C@@H]6CCCN6C(=O)[C@@H](NC(=O)OC)C6CC6)[nH]5)cc4)ccc3c2[nH]1)C(C)C` [Compound 82], the EC90 in the assay with HCV 1a replicon (Hepatitis C virus, 72 h) came to 0.24 nM; in the assay with HCV 1a Y93H replicon, 659 nM; in the assay on HCV 2b replicon, 154 nM.
Taken in the same sequence, the figures for `COC(=O)N[C@H](C(=O)N1C[Si](C)(C)C[C@H]1c1ncc(-c2ccc(-c3ccc4c(ccc5nc([C@@H]6CCCN6C(=O)[C@@H](NC(=O)OC)C6CCCC6)[nH]c54)c3)cc2)[nH]1)C1CCCC1` [Compound 35] were 0.5 nM, 555 nM and 566 nM.
Consider `CC(C)(C)OC(=O)N1C[Si](C)(C)C[C@H]1c1nc2ccc3cc(-c4ccc(-c5cnc([C@@H]6C[C@H]7C[C@H]7N6C(=O)OC(C)(C)C)[nH]5)cc4)ccc3c2[nH]1` [Compound 97], for which the EC90 is over 1 nM in the assay on HCV 1a replicon and over 1000 nM with HCV 1a Y93H replicon.
Turning to `COC(=O)N[C@@H](CCSC)C(=O)N1C[Si](C)(C)C[C@H]1c1ncc(-c2ccc(-c3ccc4c(ccc5nc([C@@H]6CCCN6C(=O)[C@H](CCSC)NC(=O)OC)[nH]c54)c3)cc2)[nH]1` [Compound 45], the concentration for an effect of 90% (EC90) with HCV 1a replicon (Hepatitis C virus, 72 h) was 0.85 nM; in the assay on HCV 1a Y93H replicon, over 1000 nM; with HCV 2b replicon, 563 nM.
Regarding `COC(=O)N1CCC[C@H]1C(=O)N1C[Si](C)(C)C[C@H]1c1ncc(-c2ccc(-c3ccc4c(ccc5nc([C@@H]6CCCN6C(=O)[C@@H]6CCCN6C(=O)OC)[nH]c54)c3)cc2)[nH]1` [Compound 54], the EC90 in the assay with HCV 1a replicon (Hepatitis C virus, 72 h) is over 1000 nM; with HCV 1a Y93H replicon it was over 1000 nM; in the assay with HCV 2b replicon it was over 1000 nM.
For the molecule `CC(C)(C)OC(=O)N1CCC[C@H]1c1ncc(-c2ccc3cc(-c4ccc5c(ccc6nc([C@@H]7C[Si](C)(C)CN7C(=O)OC(C)(C)C)[nH]c65)c4)ccc3c2)[nH]1` [Compound 110], the EC90 in the assay on HCV 1a replicon (Hepatitis C virus, 72 h) was over 1000 nM; with HCV 1a Y93H replicon, over 1000 nM.
As to `COC(=O)N[C@@H](CC(C)(C)C)C(=O)N1CCC[C@H]1c1ncc(-c2ccc(-c3ccc4c(ccc5nc([C@@H]6C[Si](C)(C)CN6C(=O)[C@@H](NC(=O)OC)C(C)C)[nH]c54)c3)cc2)[nH]1` [Compound 84], the 90% effect concentration (EC90) was 0.92 nM in the assay with HCV 1a replicon (Hepatitis C virus, 72 h); over 1000 nM with HCV 1a Y93H replicon; 413 nM in the assay on HCV 2b replicon.
Taken in the same sequence, the figures for `CC[C@H](C)[C@H](NC(=O)OC)C(=O)N1CCC[C@H]1c1ncc(-c2ccc(-c3ccc4c(ccc5nc([C@@H]6C[Si](C)(C)CN6C(=O)[C@@H](NC(=O)OC)C(C)C)[nH]c54)c3)cc2)[nH]1` [Compound 81] were 0.3 nM, 994 nM and 561 nM.
The corresponding values for `COC(=O)N[C@H](C(=O)N1CCC[C@H]1c1ncc(-c2ccc(-c3ccc4c(ccc5nc([C@@H]6C[Si](C)(C)CN6C(=O)[C@@H]6COCCN6C(=O)OC)[nH]c54)c3)cc2)[nH]1)C(C)C` [Compound 64] are 1.6 nM, over 1000 nM and 273 nM.
For `CC(C)(C)OC(=O)N1C[Si](C)(C)C[C@H]1c1nc2ccc3cc(-c4ccc(-c5nc(Cl)c([C@@H]6C[C@H]7C[C@H]7N6C(=O)OC(C)(C)C)[nH]5)cc4)ccc3c2[nH]1` [Compound 109], the EC90 in the assay with HCV 1a replicon (Hepatitis C virus, 72 h) was over 1 nM; in the assay on HCV 1a Y93H replicon, over 100 nM.
Turning to `COC(=O)N[C@H](C(=O)N1C[Si](C)(C)C[C@H]1c1nc2ccc3cc(-c4ccc(-c5[nH]c([C@@H]6C[C@H]7C[C@H]7N6C(=O)[C@@H](NC(=O)OC)C(C)C)nc5Cl)cc4)ccc3c2[nH]1)C(C)C` [Compound 102], the EC90 in the assay on HCV 1a replicon (Hepatitis C virus, 72 h) stood at 0.048 nM; in the assay with HCV 1a Y93H replicon it was 140 nM.
